In the OligoGym collection:
Oligonucleotides are given in HELM: sugar(base)linkage, 5' to 3'; d 2'-deoxyribose, r ribose, m 2'-O-methylribose, p phosphate. ss, as = sense and antisense strand

Molecular target: TMEM63B
Assay: reporter assay of Huesken 2005
Details: siRNA
Note: test concentration or dose not given here.

Q: For “RNA1{r(A)p.r(G)p.r(G)p.r(U)p.r(G)p.r(C)p.r(U)p.r(G)p.r(C)p.r(A)p.r(G)p.r(G)p.r(A)p.r(C)p.r(U)p.r(C)p.r(A)p.r(G)p.r(A)p.d(T)p.d(T)}|RNA2{r(U)p.r(C)p.r(U)p.r(G)p.r(A)p.r(G)p.r(U)p.r(C)p.r(C)p.r(U)p.r(G)p.r(C)p.r(A)p.r(G)p.r(C)p.r(A)p.r(C)p.r(C)p.r(U)p.d(G)p.d(A)}$$$RNA1{StrandType:ss}|RNA2{StrandType:as}$”, which normalised inhibition (eCFP-eYFP dual reporter) is on record?
A: 61.8%

Q: How did the normalised inhibition (eCFP-eYFP dual reporter) turn out when “RNA1{r(A)p.r(G)p.r(U)p.r(G)p.r(C)p.r(C)p.r(C)p.r(A)p.r(C)p.r(A)p.r(A)p.r(C)p.r(U)p.r(A)p.r(C)p.r(A)p.r(A)p.r(G)p.r(A)p.d(T)p.d(T)}|RNA2{r(U)p.r(C)p.r(U)p.r(U)p.r(G)p.r(U)p.r(A)p.r(G)p.r(U)p.r(U)p.r(G)p.r(U)p.r(G)p.r(G)p.r(G)p.r(C)p.r(A)p.r(C)p.r(U)p.d(G)p.d(A)}$$$RNA1{StrandType:ss}|RNA2{StrandType:as}$” was run?
A: 81.7%

Q: “RNA1{r(A)p.r(G)p.r(U)p.r(U)p.r(U)p.r(G)p.r(G)p.r(C)p.r(G)p.r(C)p.r(A)p.r(G)p.r(C)p.r(C)p.r(U)p.r(A)p.r(C)p.r(G)p.r(C)p.d(T)p.d(T)}|RNA2{r(G)p.r(C)p.r(G)p.r(U)p.r(A)p.r(G)p.r(G)p.r(C)p.r(U)p.r(G)p.r(C)p.r(G)p.r(C)p.r(C)p.r(A)p.r(A)p.r(A)p.r(C)p.r(U)p.d(G)p.d(G)}$$$RNA1{StrandType:ss}|RNA2{StrandType:as}$” was tested. Which normalised inhibition (eCFP-eYFP dual reporter) did it give?
A: 60.9%

Q: Which normalised inhibition (eCFP-eYFP dual reporter) does the source give for “RNA1{r(A)p.r(U)p.r(C)p.r(A)p.r(A)p.r(U)p.r(G)p.r(U)p.r(C)p.r(G)p.r(U)p.r(C)p.r(C)p.r(U)p.r(C)p.r(U)p.r(U)p.r(C)p.r(A)p.d(T)p.d(T)}|RNA2{r(U)p.r(G)p.r(A)p.r(A)p.r(G)p.r(A)p.r(G)p.r(G)p.r(A)p.r(C)p.r(G)p.r(A)p.r(C)p.r(A)p.r(U)p.r(U)p.r(G)p.r(A)p.r(U)p.d(G)p.d(A)}$$$RNA1{StrandType:ss}|RNA2{StrandType:as}$” here?
A: 49.2%

Q: How did the normalised inhibition (eCFP-eYFP dual reporter) turn out when “RNA1{r(A)p.r(U)p.r(C)p.r(A)p.r(U)p.r(C)p.r(A)p.r(U)p.r(C)p.r(A)p.r(C)p.r(C)p.r(A)p.r(C)p.r(C)p.r(A)p.r(U)p.r(G)p.r(G)p.d(T)p.d(T)}|RNA2{r(C)p.r(C)p.r(A)p.r(U)p.r(G)p.r(G)p.r(U)p.r(G)p.r(G)p.r(U)p.r(G)p.r(A)p.r(U)p.r(G)p.r(A)p.r(U)p.r(G)p.r(A)p.r(U)p.d(G)p.d(G)}$$$RNA1{StrandType:ss}|RNA2{StrandType:as}$” was run?
A: 59.5%

Q: For “RNA1{r(A)p.r(U)p.r(C)p.r(C)p.r(U)p.r(C)p.r(A)p.r(U)p.r(C)p.r(C)p.r(C)p.r(A)p.r(A)p.r(G)p.r(A)p.r(U)p.r(G)p.r(A)p.r(G)p.d(T)p.d(T)}|RNA2{r(C)p.r(U)p.r(C)p.r(A)p.r(U)p.r(C)p.r(U)p.r(U)p.r(G)p.r(G)p.r(G)p.r(A)p.r(U)p.r(G)p.r(A)p.r(G)p.r(G)p.r(A)p.r(U)p.d(G)p.d(A)}$$$RNA1{StrandType:ss}|RNA2{StrandType:as}$”, which normalised inhibition (eCFP-eYFP dual reporter) is on record?
A: 53.8%

Q: “RNA1{r(A)p.r(U)p.r(C)p.r(U)p.r(G)p.r(C)p.r(G)p.r(A)p.r(A)p.r(A)p.r(U)p.r(A)p.r(C)p.r(A)p.r(U)p.r(C)p.r(G)p.r(C)p.r(U)p.d(T)p.d(T)}|RNA2{r(A)p.r(G)p.r(C)p.r(G)p.r(A)p.r(U)p.r(G)p.r(U)p.r(A)p.r(U)p.r(U)p.r(U)p.r(C)p.r(G)p.r(C)p.r(A)p.r(G)p.r(A)p.r(U)p.d(T)p.d(T)}$$$RNA1{StrandType:ss}|RNA2{StrandType:as}$” was tested. Which normalised inhibition (eCFP-eYFP dual reporter) did it give?
A: 50.5%

Q: With “RNA1{r(A)p.r(U)p.r(G)p.r(C)p.r(G)p.r(U)p.r(A)p.r(G)p.r(A)p.r(C)p.r(A)p.r(C)p.r(A)p.r(C)p.r(C)p.r(U)p.r(C)p.r(C)p.r(A)p.d(T)p.d(T)}|RNA2{r(U)p.r(G)p.r(G)p.r(A)p.r(G)p.r(G)p.r(U)p.r(G)p.r(U)p.r(G)p.r(U)p.r(C)p.r(U)p.r(A)p.r(C)p.r(G)p.r(C)p.r(A)p.r(U)p.d(G)p.d(C)}$$$RNA1{StrandType:ss}|RNA2{StrandType:as}$” as the substance, how does the normalised inhibition (eCFP-eYFP dual reporter) read?
A: 76.8%

Q: “RNA1{r(A)p.r(U)p.r(G)p.r(G)p.r(A)p.r(A)p.r(U)p.r(C)p.r(U)p.r(C)p.r(C)p.r(A)p.r(A)p.r(A)p.r(U)p.r(A)p.r(U)p.r(G)p.r(C)p.d(T)p.d(T)}|RNA2{r(G)p.r(C)p.r(A)p.r(U)p.r(A)p.r(U)p.r(U)p.r(U)p.r(G)p.r(G)p.r(A)p.r(G)p.r(A)p.r(U)p.r(U)p.r(C)p.r(C)p.r(A)p.r(U)p.d(T)p.d(G)}$$$RNA1{StrandType:ss}|RNA2{StrandType:as}$” was tested. Which normalised inhibition (eCFP-eYFP dual reporter) did it give?
A: 78.7%

Q: “RNA1{r(A)p.r(U)p.r(U)p.r(U)p.r(U)p.r(G)p.r(A)p.r(G)p.r(G)p.r(A)p.r(A)p.r(G)p.r(C)p.r(C)p.r(U)p.r(A)p.r(C)p.r(C)p.r(C)p.d(T)p.d(T)}|RNA2{r(G)p.r(G)p.r(G)p.r(U)p.r(A)p.r(G)p.r(G)p.r(C)p.r(U)p.r(U)p.r(C)p.r(C)p.r(U)p.r(C)p.r(A)p.r(A)p.r(A)p.r(A)p.r(U)p.d(G)p.d(C)}$$$RNA1{StrandType:ss}|RNA2{StrandType:as}$” was tested. Which normalised inhibition (eCFP-eYFP dual reporter) did it give?
A: 27.8%

Q: For “RNA1{r(C)p.r(A)p.r(C)p.r(C)p.r(A)p.r(C)p.r(U)p.r(C)p.r(C)p.r(A)p.r(G)p.r(C)p.r(C)p.r(A)p.r(U)p.r(C)p.r(A)p.r(U)p.r(C)p.d(T)p.d(T)}|RNA2{r(G)p.r(A)p.r(U)p.r(G)p.r(A)p.r(U)p.r(G)p.r(G)p.r(C)p.r(U)p.r(G)p.r(G)p.r(A)p.r(G)p.r(U)p.r(G)p.r(G)p.r(U)p.r(G)p.d(A)p.d(G)}$$$RNA1{StrandType:ss}|RNA2{StrandType:as}$”, which normalised inhibition (eCFP-eYFP dual reporter) is on record?
A: 70.2%

Q: With “RNA1{r(C)p.r(A)p.r(C)p.r(C)p.r(C)p.r(A)p.r(G)p.r(U)p.r(U)p.r(C)p.r(U)p.r(U)p.r(C)p.r(C)p.r(C)p.r(C)p.r(A)p.r(C)p.r(C)p.d(T)p.d(T)}|RNA2{r(G)p.r(G)p.r(U)p.r(G)p.r(G)p.r(G)p.r(G)p.r(A)p.r(A)p.r(G)p.r(A)p.r(A)p.r(C)p.r(U)p.r(G)p.r(G)p.r(G)p.r(U)p.r(G)p.d(A)p.d(T)}$$$RNA1{StrandType:ss}|RNA2{StrandType:as}$” as the substance, how does the normalised inhibition (eCFP-eYFP dual reporter) read?
A: 56.1%

Q: How did the normalised inhibition (eCFP-eYFP dual reporter) turn out when “RNA1{r(C)p.r(A)p.r(C)p.r(U)p.r(U)p.r(C)p.r(A)p.r(A)p.r(A)p.r(U)p.r(A)p.r(C)p.r(C)p.r(U)p.r(C)p.r(A)p.r(G)p.r(U)p.r(G)p.d(T)p.d(T)}|RNA2{r(C)p.r(A)p.r(C)p.r(U)p.r(G)p.r(A)p.r(G)p.r(G)p.r(U)p.r(A)p.r(U)p.r(U)p.r(U)p.r(G)p.r(A)p.r(A)p.r(G)p.r(U)p.r(G)p.d(T)p.d(C)}$$$RNA1{StrandType:ss}|RNA2{StrandType:as}$” was run?
A: 55%

Q: How did the normalised inhibition (eCFP-eYFP dual reporter) turn out when “RNA1{r(C)p.r(A)p.r(G)p.r(C)p.r(C)p.r(A)p.r(U)p.r(C)p.r(A)p.r(U)p.r(C)p.r(A)p.r(U)p.r(C)p.r(A)p.r(C)p.r(C)p.r(A)p.r(C)p.d(T)p.d(T)}|RNA2{r(G)p.r(U)p.r(G)p.r(G)p.r(U)p.r(G)p.r(A)p.r(U)p.r(G)p.r(A)p.r(U)p.r(G)p.r(A)p.r(U)p.r(G)p.r(G)p.r(C)p.r(U)p.r(G)p.d(G)p.d(A)}$$$RNA1{StrandType:ss}|RNA2{StrandType:as}$” was run?
A: 74.3%

Q: How did the normalised inhibition (eCFP-eYFP dual reporter) turn out when “RNA1{r(C)p.r(A)p.r(G)p.r(C)p.r(U)p.r(C)p.r(C)p.r(G)p.r(U)p.r(U)p.r(G)p.r(A)p.r(C)p.r(U)p.r(U)p.r(U)p.r(G)p.r(A)p.r(C)p.d(T)p.d(T)}|RNA2{r(G)p.r(U)p.r(C)p.r(A)p.r(A)p.r(A)p.r(G)p.r(U)p.r(C)p.r(A)p.r(A)p.r(C)p.r(G)p.r(G)p.r(A)p.r(G)p.r(C)p.r(U)p.r(G)p.d(G)p.d(A)}$$$RNA1{StrandType:ss}|RNA2{StrandType:as}$” was run?
A: 84.4%

Q: “RNA1{r(C)p.r(A)p.r(G)p.r(G)p.r(A)p.r(C)p.r(A)p.r(A)p.r(C)p.r(C)p.r(A)p.r(U)p.r(G)p.r(C)p.r(A)p.r(C)p.r(A)p.r(A)p.r(G)p.d(T)p.d(T)}|RNA2{r(C)p.r(U)p.r(U)p.r(G)p.r(U)p.r(G)p.r(C)p.r(A)p.r(U)p.r(G)p.r(G)p.r(U)p.r(U)p.r(G)p.r(U)p.r(C)p.r(C)p.r(U)p.r(G)p.d(T)p.d(T)}$$$RNA1{StrandType:ss}|RNA2{StrandType:as}$” was tested. Which normalised inhibition (eCFP-eYFP dual reporter) did it give?
A: 61.5%

Q: How did the normalised inhibition (eCFP-eYFP dual reporter) turn out when “RNA1{r(C)p.r(A)p.r(G)p.r(G)p.r(C)p.r(C)p.r(U)p.r(G)p.r(C)p.r(U)p.r(C)p.r(A)p.r(U)p.r(G)p.r(U)p.r(A)p.r(C)p.r(A)p.r(U)p.d(T)p.d(T)}|RNA2{r(A)p.r(U)p.r(G)p.r(U)p.r(A)p.r(C)p.r(A)p.r(U)p.r(G)p.r(A)p.r(G)p.r(C)p.r(A)p.r(G)p.r(G)p.r(C)p.r(C)p.r(U)p.r(G)p.d(G)p.d(G)}$$$RNA1{StrandType:ss}|RNA2{StrandType:as}$” was run?
A: 72.1%

Q: “RNA1{r(C)p.r(A)p.r(U)p.r(C)p.r(C)p.r(C)p.r(A)p.r(A)p.r(G)p.r(A)p.r(U)p.r(G)p.r(A)p.r(G)p.r(G)p.r(A)p.r(G)p.r(U)p.r(U)p.d(T)p.d(T)}|RNA2{r(A)p.r(A)p.r(C)p.r(U)p.r(C)p.r(C)p.r(U)p.r(C)p.r(A)p.r(U)p.r(C)p.r(U)p.r(U)p.r(G)p.r(G)p.r(G)p.r(A)p.r(U)p.r(G)p.d(A)p.d(G)}$$$RNA1{StrandType:ss}|RNA2{StrandType:as}$” was tested. Which normalised inhibition (eCFP-eYFP dual reporter) did it give?
A: 53%

Q: With “RNA1{r(C)p.r(A)p.r(U)p.r(C)p.r(U)p.r(G)p.r(G)p.r(U)p.r(G)p.r(G)p.r(C)p.r(U)p.r(G)p.r(C)p.r(G)p.r(C)p.r(U)p.r(G)p.r(C)p.d(T)p.d(T)}|RNA2{r(G)p.r(C)p.r(A)p.r(G)p.r(C)p.r(G)p.r(C)p.r(A)p.r(G)p.r(C)p.r(C)p.r(A)p.r(C)p.r(C)p.r(A)p.r(G)p.r(A)p.r(U)p.r(G)p.d(A)p.d(A)}$$$RNA1{StrandType:ss}|RNA2{StrandType:as}$” as the substance, how does the normalised inhibition (eCFP-eYFP dual reporter) read?
A: 29.3%

Q: How did the normalised inhibition (eCFP-eYFP dual reporter) turn out when “RNA1{r(C)p.r(A)p.r(U)p.r(G)p.r(A)p.r(C)p.r(C)p.r(U)p.r(A)p.r(C)p.r(A)p.r(G)p.r(U)p.r(A)p.r(U)p.r(C)p.r(A)p.r(C)p.r(C)p.d(T)p.d(T)}|RNA2{r(G)p.r(G)p.r(U)p.r(G)p.r(A)p.r(U)p.r(A)p.r(C)p.r(U)p.r(G)p.r(U)p.r(A)p.r(G)p.r(G)p.r(U)p.r(C)p.r(A)p.r(U)p.r(G)p.d(A)p.d(C)}$$$RNA1{StrandType:ss}|RNA2{StrandType:as}$” was run?
A: 58.9%
